Reference: patent US9000022B2 (Exelixis Patent Company LLC, priority 2005, dated 2015)

System: LXRα and/or LXRβ
Experiment: Co-transfection assay (LXRE luciferase reporter, CV-1 cells)
Format: cell-based, human
Conditions: tested as described in Example 33; IC50 or EC50 for LXRα and/or LXRβ, isoform not specified; read-out: activity (IC50 or EC50 for LXR)
Summary of the method: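 Luciferase signal measures LXR-RXR transcriptional activation in transiently transfected CV-1 cells carrying human LXRα or LXRβ, RXRα and a single-copy LXRE reporter. Cells were exposed to compound for 20 h at 37 °C with at most 1% DMSO, using 10 μM final for screening. Potency was derived from 4-parameter fits of 8-point, half-log dose curves averaged over ≥3 runs, and efficacy was expressed as % of a reference agonist.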

| SMILES | IC50 or EC50 (potency, activation or inhibition) |
| --- | --- |
| CC(C)(O)c1cn(-c2ccc(-c3ccc(CO)c(S(C)(=O)=O)c3)cc2Cl)c(-c2ccccc2C(F)(F)F)n1 [Example 139, 2-(1-(3-chloro-4′-(hydroxymethyl)-3′-(methylsulfonyl)biphenyl-4-yl)-2-(2-(trifluoromethyl)phenyl)-1H-imidazol-4-yl)propan-2-ol] | < 1000 nM |
| CCS(=O)(=O)c1cccc(-c2ccc(-n3cc(C(C)(C)O)nc3-c3c(Cl)cccc3Cl)c(C)c2)c1 [Example 182, 2-(2-(2,6-dichlorophenyl)-1-(3′-(ethylsulfonyl)-3-methylbiphenyl-4-yl)-1H-imidazol-4-yl)propan-2-ol] | < 1000 nM |
| CCS(=O)(=O)c1cccc(-c2ccc(-n3cc(C(C)(C)O)nc3-c3cccc(F)c3Cl)c(F)c2)c1 [Example 124, 2-(2-(2-chloro-3-fluorophenyl)-1-(3′-(ethylsulfonyl)-3-fluorobiphenyl-4-yl)-1H-imidazol-4-yl)propan-2-ol] | < 1000 nM |
| CCS(=O)(=O)c1cccc(-c2ccc(-c3nc(C(C)(C)O)cn3-c3c(Cl)cccc3Cl)c(Cl)c2)c1 [Example 66, 2-(2-(3-chloro-3′-(ethyl-sulfonyl)biphenyl-4-yl)-1-(2,6-dichlorophenyl)-1H-imidazol-4-yl)propan-2-ol] | < 1000 nM |
| CC(C)(O)c1cn(-c2ccc(-c3ccc(C(=O)NCc4ccccc4)c(S(C)(=O)=O)c3)cc2Cl)c(-c2c(F)cccc2Cl)n1 [Example 80, N-benzyl-3′-chloro-4′-(2-(2-chloro-6-fluorophenyl)-4-(2-hydroxypropan-2-yl)-1H-imidazol-1-yl)-3-(methyl-sulfonyl)biphenyl-4-carboxamide] | 1000 to 10000 nM |
| CC(C)(O)c1cn(-c2ccc(-c3cccc(S(C)(=O)=O)c3)cc2F)c(-c2ccccc2C(F)(F)F)n1 [Example 109, 2-(1-(3-fluoro-3′-(methyl-sulfonyl)biphenyl-4-yl)-2-(2-(trifluoromethyl)phenyl)-1H-imidazol-4-yl)propan-2-ol] | < 1000 nM |
| COc1ccc(-c2ccc(-n3cc(C(C)(C)O)nc3-c3c(F)cccc3Cl)c(Cl)c2)cc1S(C)(=O)=O [Example 454, 2-(1-(3-chloro-4′-methoxy-3′-(methylsulfonyl)biphenyl-4-yl)-2-(2-chloro-6-fluorophenyl)-1H-imidazol-4-yl)propan-2-ol] | 1000 to 10000 nM |
| CS(=O)(=O)c1cccc(-c2ccc(-n3cc(C(=S)NCC(F)(F)F)nc3-c3ccccc3Cl)cc2)c1 [Example 398, 2-(2-chlorophenyl)-1-[3′-(methyl-sulfonyl)biphenyl-4-yl]-N-(2,2,2-trifluoroethyl)-1H-imidazole-4-carbothioamide] | < 1000 nM |
| CC(C)(O)c1cn(-c2ccc(-c3ccc(CO)c(S(C)(=O)=O)c3)cc2Cl)c(-c2c(Cl)cccc2Cl)n1 [Example 149, 2-(1-(3-chloro-4′-(hydroxymethyl)-3′-(methylsulfonyl)biphenyl-4-yl)-2-(2,6-dichlorophenyl)-1H-imidazol-4-yl)propan-2-ol] | < 1000 nM |

Other lines, results leading:

| IC50 or EC50 (potency, activation or inhibition) | SMILES |
| --- | --- |
| < 1000 nM | CC(C)(O)c1cn(-c2ccc(-c3cccc(S(C)(=O)=O)c3)cc2Cl)c(C(C)(C)c2cccc(Cl)c2Cl)n1 [Example 451, 2-(1-(3-chloro-3′-(methyl-sulfonyl)biphenyl-4-yl)-2-(2-(2,3-dichlorophenyl)propan-2-yl)-1H-imidazol-4-yl)propan-2-ol] |
| < 1000 nM | Cc1cc(-c2cccc(S(C)(=O)=O)c2)ccc1-n1cc(C(C)(C)O)nc1-c1cccc(F)c1Cl [Example 185, 2-(2-(2-chloro-3-fluorophenyl)-1-(3-methyl-3′-(methylsulfonyl)biphenyl-4-yl)-1H-imidazol-4-yl)propan-2-ol] |
| < 1000 nM | CC(C)(O)c1nc(-c2ccccc2C(F)(F)F)n(-c2ccc(-c3cccc(S(C)(=O)=O)c3)cc2)c1F [Example 406, 2-{5-fluoro-1-[3′-(methyl-sulfonyl)biphenyl-4-yl]-2-[2-(trifluoro-methyl)phenyl]-1H-imidazol-4-yl}propan-2-ol] |
| 1000 to 10000 nM | CCOC(=O)c1cn(-c2ccc(Br)cc2)c(-c2ccccc2C(F)(F)F)n1 [Example 366, ethyl 1-(4-bromophenyl)-2-[2-(trifluoromethyl)phenyl]-1H-imidazole-4-carboxylate] |
| < 1000 nM | CCS(=O)(=O)c1cccc(-c2ccc(-n3cc(C(C)(C)O)nc3-c3c(Cl)cccc3Cl)c(F)c2)c1 [Example 116, 2-(2-(2,6-dichlorophenyl)-1-(3′-(ethylsulfonyl)-3-fluorobiphenyl-4-yl)-1H-imidazol-4-yl)propan-2-ol] |
| 1000 to 10000 nM | FC(F)(F)c1cn(-c2ccc(Br)cn2)c(-c2ccccc2C(F)(F)F)n1 [Example 368, 5-bromo-2-{4-(trifluoromethyl)-2-[2-(trifluoro-methyl)phenyl]-1H-imidazol-1-yl}pyridine] |
| < 1000 nM | CC(C)(O)c1nc(-c2ccccc2C(F)(F)F)n(-c2ccc(-c3cccc(S(C)(=O)=O)c3)cc2)c1Br [Example 402, 2-{5-bromo-1-[3′-(methyl-sulfonyl)biphenyl-4-yl]-2-[2-(trifluoro-methyl)phenyl]-1H-imidazol-4-yl}propan-2-ol] |
| 1000 to 10000 nM | CC(C)(O)c1cn(-c2ccc(-c3cccc(S(C)(=O)=O)c3)cn2)c(-c2ccccc2C(F)(F)F)n1 [Example 420, 2-(1-{5-[3-(methyl-sulfonyl)phenyl]pyridin-2-yl}-2-[2-(trifluoromethyl)phenyl]-1H-imidazol-4-yl)propan-2-ol] |
| < 1000 nM | CS(=O)(=O)c1cccc(-c2ccc(-n3cc(C(=O)NCC(F)(F)F)nc3-c3c(Cl)cccc3Cl)cc2)c1 [Example 87, 2-(2,6-dichlorophenyl)-1-(3′-(methyl-sulfonyl)biphenyl-4-yl)-4-(2,2,2-trifluoroethyl)-1H-imidazole-4-carboxamide] |
| < 1000 nM | NS(=O)(=O)c1cccc(-c2ccc(-n3cc(C(F)(F)F)nc3-c3ccccc3C(F)(F)F)cc2)c1 [Example 365, 4′-{4-(trifluoromethyl)-2-[2-(trifluoromethyl)phenyl]-1H-imidazol-1-yl}biphenyl-3-sulfonamide] |
| < 1000 nM | CCS(=O)(=O)c1cccc(-c2ccc(-n3cc(C(C)(C)O)nc3-c3ccccc3C(F)(F)F)cc2F)c1 [Example 112, 2-(1-(3′-(ethylsulfonyl)-2-fluoro-biphenyl-4-yl)-2-(2-(trifluoro-methyl)phenyl)-1H-imidazol-4-yl)propan-2-ol] |
| 1000 to 10000 nM | CC(C)(O)c1cn(-c2ccc(-c3cccc(C(=O)O)c3)cc2)c(-c2ccccc2Cl)n1 [Example 395, 4′-[2-(2-chlorophenyl)-4-(1-hydroxy-1-methylethyl)-1H-imidazol-1-yl]biphenyl-3-carboxylic acid] |
| < 1000 nM | CNS(=O)(=O)c1cccc(-c2ccc(-n3cc(C(C)(C)O)nc3-c3ccccc3C(F)(F)F)cc2)c1 [Example 344, 4′-{4-(1-hydroxy-1-methylethyl)-2-[2-(trifluoromethyl)phenyl]-1H-imidazol-1-yl}-N-methylbiphenyl-3-sulfonamide] |
